# Assay results from patent US8344008B2 (Janssen Pharmaceutica NV, priority 2007, dated 2013).
# Target: T1, recombinant human LTA4 hydrolase (rhLTA4H) (Homo sapiens, UniProt P09960)
# T1 construct: made in house; host or cells: Spodoptera frugiperda (Sf-9) cells, baculovirus (pFastBac1)
# T1 sequence (P09960 1-611): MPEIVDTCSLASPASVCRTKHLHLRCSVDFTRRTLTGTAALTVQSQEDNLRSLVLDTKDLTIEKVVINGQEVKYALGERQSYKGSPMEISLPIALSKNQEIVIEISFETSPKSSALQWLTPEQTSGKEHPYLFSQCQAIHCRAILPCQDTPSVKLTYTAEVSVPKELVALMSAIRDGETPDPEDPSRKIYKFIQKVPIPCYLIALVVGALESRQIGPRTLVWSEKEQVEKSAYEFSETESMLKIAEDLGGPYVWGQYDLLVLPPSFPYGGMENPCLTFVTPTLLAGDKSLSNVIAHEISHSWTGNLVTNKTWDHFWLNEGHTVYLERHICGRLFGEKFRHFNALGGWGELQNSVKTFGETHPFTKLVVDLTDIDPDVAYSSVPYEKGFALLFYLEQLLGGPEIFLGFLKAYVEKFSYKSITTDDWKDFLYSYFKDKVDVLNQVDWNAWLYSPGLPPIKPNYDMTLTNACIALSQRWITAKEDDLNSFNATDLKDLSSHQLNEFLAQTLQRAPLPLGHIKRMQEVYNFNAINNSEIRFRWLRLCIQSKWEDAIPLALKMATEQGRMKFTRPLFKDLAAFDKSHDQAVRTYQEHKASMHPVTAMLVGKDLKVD
# Assay: Recombinant Human LTA4 Hydrolase Assay for LTA4 Hydrolase Inhibitor Activity
# Type: biochemical
# Conditions: average of results obtained; LTB4 quantified by enzyme-linked immunoassay
# Procedure: Biological Methods: Recombinant Human LTA4 Hydrolase Assay for LTA4 Hydrolase Inhibitor Activity
# Compounds of the present invention were tested for LTA4 hydrolase inhibitor activity against recombinant human LTA4 hydrolase (rhLTA4H). Vectors were prepared and used to express rhLTA4H essentially as follows: LTA4 hydrolase encoding DNA was amplified by polymerase chain reaction (PCR) using a human placental cDNA library as a template. Oligonucleotide primers for the PCR reaction were based on the 5′-end, and the complement of the 3′-end, of the published nucleotide sequence for the coding region of the human LTA4 hydrolase gene (C. D. Funk et al., Proc. Natl. Acad. Sci. USA 1987, 84:6677-6681). The amplified 1.9 kb DNA fragment encoding LTA4 hydrolase was isolated and cloned into the pFastBac1 vector (Invitrogen). Recombinant baculovirus was generated as described by the manufacturer, and used to infect Spodoptera frugiperda (Sf-9) cells. Recombinant LTA4 hydrolase enzyme was purified from the infected Sf-9 cells essentially as described by J. K. Gierse et al. (Protein Expression and Purification 1993, 4:358-366). The purified enzyme solution was adjusted to contain 0.29 mg/mL LTA4 hydrolase, 50 mM Tris (pH 8.0), 150 mM NaCl, 5 mM dithiothreitol, 50% glycerol, and EDTA-free Complete protease inhibitor cocktail (Roche). The specific activity of the enzyme was about 3.8 μmol/min/mg.
# LTA4 substrate was prepared from the methyl ester of LTA4 (Cayman Chemical) by treatment with 67 equiv of NaOH under nitrogen at rt for 40 min. The LTA4 substrate in its free acid form was kept frozen at −80° C. until needed. Each compound was diluted to different concentrations in assay buffer (0.1 M potassium phosphate (pH 7.4), 5 mg/mL fatty acid free BSA) containing 10% DMSO. A 25-uL aliquot of each compound dilution was incubated for 10 min at rt with an equal volume of assay buffer containing 36 ng of recombinant human LTA4H. The solution was then adjusted to 200 μL with assay buffer. LTA4 (free acid) was thawed and diluted in assay buffer to a concentration of 357 ng/mL, and 25 μL (9 ng) of LTA4 substrate was added to the reaction mixture (total volume=225 μL) at time zero. Each reaction was carried out at rt for 10 min. The reaction was stopped by diluting 10 μL of the reaction mixture with 200 μL of assay buffer. LTB4 was quantified in the diluted sample by a commercially available enzyme-linked immunoassay (Cayman Chemical Co.), as recommended by the manufacturer. Positive controls, under essentially identical conditions but without addition of an inhibitor compound, and negative controls, containing all assay components except enzyme, were routinely run in each experiment. […]
# Results for the compounds tested in this assay are presented in Table 1 as an average of results obtained.
row,SMILES,Ki
1,"NC(=O)N1CC2CN(CCOc3ccc(Oc4nc5ccccc5s4)cc3)CC2C1 (stereo not shown) [Example 134, 5-{2-[4-(Benzothiazol-2-yloxy)-phenoxy]-ethyl}-hexahydro-pyrrolo[3,4-c]pyrrole-2-carboxylic acid amide]",32 nM
2,"O=C(c1ccco1)N1CC2CN(Cc3ccc(Oc4nc5ccccc5s4)cc3)CC2C1 (stereo not shown) [Example 106, {5-[4-(Benzothiazol-2-yloxy)-benzyl]-hexahydro-pyrrolo[3,4-c]pyrrol-2-yl}-furan-2-yl-methanone]",3 nM
3,"CC(C)(C)OC(=O)NC1(C(=O)N2C[C@@H]3C[C@H]2CN3CCOc2ccc(Oc3nc4ccccc4s3)cc2)CC1 [Example 66, (S,S)-[1-(5-{2-[4-(Benzothiazol-2-yloxy)-phenoxy]-ethyl}-2,5-diaza-bicyclo[2.2.1]heptane-2-carbonyl)-cyclopropyl]-carbamic acid tert-butyl ester]",191 nM
4,"CC(=O)N[C@@H]1C[C@H]2CC[C@@H](C1)N2CCOc1ccc(Oc2nc3ccc(F)cc3s2)cc1 [Example 227, meso-exo-N-(8-{2-[4-(6-Fluoro-benzothiazol-2-yloxy)-phenoxy]-ethyl}-8-aza-bicyclo[3.2.1]oct-3-yl)-acetamide]",8 nM
5,"CC(=O)N[C@H]1C[C@H]2CC[C@@H](C1)N2Cc1ccc(Oc2nc3c(Cl)cccc3s2)cc1 [Example 71, meso-endo-N-{8-[4-(4-Chloro-benzothiazol-2-yloxy)-benzyl]-8-aza-bicyclo[3.2.1]oct-3-yl}-acetamide]",25 nM
6,"CS(=O)(=O)N1CC2CCC(C1)N2CCOc1ccc(Oc2nc3ccc(F)cc3s2)cc1 [Example 243, meso-6-Fluoro-2-{4-[2-(3-methanesulfonyl-3,8-diaza-bicyclo[3.2.1]oct-8-yl)-ethoxy]-phenoxy}-benzothiazole]",61 nM
7,"CC(=O)N[C@H]1C[C@H]2CC[C@@H](C1)N2Cc1ccc(Oc2nc3ccccc3s2)cc1 [Example 52, meso-endo-N-{8-[4-(Benzothiazol-2-yloxy)-benzyl]-8-aza-bicyclo[3.2.1]oct-3-yl}-acetamide]",2 nM
8,"NCC(=O)N1CC2CCN(Cc3ccc(Oc4nc5ccccc5s4)cc3)C2C1 (stereo not shown) [Example 96, 2-Amino-1-{1-[4-(benzothiazol-2-yloxy)-benzyl]-hexahydro-pyrrolo[3,4-b]pyrrol-5-yl}-ethanone]",26 nM
9,"NCC(=O)N1C2CCC1CN(Cc1ccc(Oc3nc4ccccc4s3)cc1)C2 [Example 55, meso-2-Amino-1-{3-[4-(benzothiazol-2-yloxy)-benzyl]-3,8-diaza-bicyclo[3.2.1]oct-8-yl}-ethanone]",116 nM
10,"CN(Cc1ccc(Oc2nc3ccccc3s2)cc1)[C@H]1C[C@H]2CC[C@@H](C1)N2C(N)=O [Example 75, meso-endo-3-{[4-(Benzothiazol-2-yloxy)-benzyl]-methyl-amino}-8-aza-bicyclo[3.2.1]octane-8-carboxylic acid amide]",95 nM
11,"NC(=O)N1CC2CCC(C1)N2Cc1ccc(Oc2nc3ccccc3s2)cc1F [Example 76, meso-8-[4-(Benzothiazol-2-yloxy)-2-fluoro-benzyl]-3,8-diaza-bicyclo[3.2.1]octane-3-carboxylic acid amide]",195 nM
12,"Cn1ccc(C(=O)N2CC3CN(Cc4ccc(Oc5nc6ccccc6s5)cc4)CC3C2)c1 (stereo not shown) [Example 108, {5-[4-(Benzothiazol-2-yloxy)-benzyl]-hexahydro-pyrrolo[3,4-c]pyrrol-2-yl}-(1-methyl-1H-pyrrol-3-yl)-methanone]",97 nM
13,"CS(=O)(=O)N[C@@H]1C[C@H]2CC[C@@H](C1)N2CCOc1ccc(Oc2nc3cccc(F)c3s2)cc1 [Example 251, meso-exo-N-(8-{2-[4-(7-Fluoro-benzothiazol-2-yloxy)-phenoxy]-ethyl}-8-aza-bicyclo[3.2.1]oct-3-yl)-methanesulfonamide]",33 nM
14,"COC(=O)CN1CC2CN(Cc3ccc(Oc4nc5ccccc5s4)cc3)CC2C1 (stereo not shown) [Example 157, {5-[4-(Benzothiazol-2-yloxy)-benzyl]-hexahydro-pyrrolo[3,4-c]pyrrol-2-yl}-acetic acid methyl ester]",57 nM
15,"CS(=O)(=O)N[C@@H]1C[C@H]2CC[C@@H](C1)N2Cc1ccc(Oc2nc3cccc(Cl)c3s2)cc1 [Example 215, meso-exo-N-{8-[4-(7-Chloro-benzothiazol-2-yloxy)-benzyl]-8-aza-bicyclo[3.2.1]oct-3-yl}-methanesulfonamide]",90 nM
16,"NCC(=O)N1CC2CN(Cc3ccc(Oc4nc5ccccc5s4)cc3)CC2C1 (stereo not shown) [Example 97, 2-Amino-1-{5-[4-(benzothiazol-2-yloxy)-benzyl]-hexahydro-pyrrolo[3,4-c]pyrrol-2-yl}-ethanone]",33 nM

# Other lines, results leading:
row,Ki,SMILES
1,121 nM,"CC(=O)N1C[C@H]2C[C@@H]1CN2CCc1ccc(Oc2nc3cc(Cl)ccc3s2)cc1 [Example 274, (R,R)-1-(5-{2-[4-(5-Chloro-benzothiazol-2-yloxy)-phenyl]-ethyl}-2,5-diaza-bicyclo[2.2.1]hept-2-yl)-ethanone]"
2,383 nM,"CC(=O)N1C[C@H]2C[C@@H]1CN2Cc1ccc(Oc2nc3cc(F)ccc3s2)cc1 [Example 183, (R,R)-1-{5-[4-(5-Fluoro-benzothiazol-2-yloxy)-benzyl]-2,5-diaza-bicyclo[2.2.1]hept-2-yl}-ethanone]"
3,12 nM,"NC(=O)N1C[C@H]2C[C@@H]1CN2CCc1ccc(Oc2nc3cccc(F)c3s2)cc1 [Example 245, (R,R)-5-{2-[4-(7-Fluoro-benzothiazol-2-yloxy)-phenyl]-ethyl}-2,5-diaza-bicyclo[2.2.1]heptane-2-carboxylic acid amide]"
4,6 nM,"CC(=O)N1C[C@@H]2C[C@H]1CN2Cc1ccc(Oc2nc3ccccc3s2)cc1 [Example 1, (S,S)-1-{5-[4-(Benzothiazol-2-yloxy)-benzyl]-2,5-diaza-bicyclo[2.2.1]hept-2-yl}-ethanone]"
5,10 nM,"NC(=O)N1C[C@H]2C[C@@H]1CN2Cc1ccc(Oc2nc3c(F)cccc3s2)cc1 [Example 186, (R,R)-5-[4-(4-Fluoro-benzothiazol-2-yloxy)-benzyl]-2,5-diaza-bicyclo[2.2.1]heptane-2-carboxylic acid amide]"
6,38 nM,"O=C(CO)N1C[C@H]2C[C@@H]1CN2Cc1ccc(Oc2nc3ccccc3s2)cc1 [Example 44, (R,R)-1-{5-[4-(Benzothiazol-2-yloxy)-benzyl]-2,5-diaza-bicyclo[2.2.1]hept-2-yl}-2-hydroxy-ethanone]"
7,11 nM,"CC(C)(O)C(=O)N1C[C@@H]2C[C@H]1CN2CCc1ccc(Oc2nc3ccccc3s2)cc1 [Example 17, (S,S)-1-(5-{2-[4-(Benzothiazol-2-yloxy)-phenyl]-ethyl}-2,5-diaza-bicyclo[2.2.1]hept-2-yl)-2-hydroxy-2-methyl-propan-1-one]"
8,18 nM,"O=C(CO)N1C[C@@H]2C[C@H]1CN2CCc1ccc(Oc2nc3ccccc3s2)cc1 [Example 15, (S,S)-1-(5-{2-[4-(Benzothiazol-2-yloxy)-phenyl]-ethyl}-2,5-diaza-bicyclo[2.2.1]hept-2-yl)-2-hydroxy-ethanone]"
9,398 nM,"NC(=O)N[C@@H]1C[C@H]2CC[C@@H](C1)N2CCc1ccc(Oc2nc3cc(F)ccc3s2)cc1 [Example 242, meso-exo-(8-{2-[4-(5-Fluoro-benzothiazol-2-yloxy)-phenyl]-ethyl}-8-aza-bicyclo[3.2.1]oct-3-yl)-urea]"
